From patent US12077503B2, “Substituted cyclic amides and their use as herbicides” (FMC CORPORATION, priority 2015, dated 2024)

Legend:
Assay type in all cases: in vivo
[1] = tested on: ragweed (common ragweed, Ambrosia elatior); test: Test A preemergence; conditions: Ambrosia artemisiifolia, pre-emergence, 240 h, Preemergence
Method in brief: (§1)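 Seeded soil received test chemicals as a preemergence directed spray, and seedlings at one to two leaves, 2–10 cm tall, received them postemergence, in a non-phytotoxic, surfactant-containing solvent mixture. Pots were held in a greenhouse for approximately 10 d, then rated for injury from 0, no effect, to 100, complete control.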

[2] = tested on: barnyardgrass (Echinochloa crus-galli); test: Test A preemergence; conditions: Echinochloa crus-galli, pre-emergence, 240 h, Preemergence
Method in brief: as §1

[3] = tested on: ryegrass, Italian (Italian ryegrass, Lolium multiflorum); test: Test A preemergence; conditions: Lolium multiflorum, pre-emergence, 240 h, Preemergence
Method in brief: as §1

[4] = tested on: pigweed (Amaranthus retroflexus); test: Test A preemergence; conditions: Amaranthus retroflexus, pre-emergence, 240 h, Preemergence
Kochia (Kochia scoparia) [5] = test: Test A preemergence; conditions: Bassia scoparia, pre-emergence, 240 h, Preemergence
Method in brief: as §1

[6] = tested on: giant foxtail (Setaria faberii); test: Test A preemergence; conditions: Setaria faberi, pre-emergence, 240 h, Preemergence
Method in brief: as §1

[7] = tested on: sedge, umbrella (small-flower umbrella sedge, Cyperus difformis); test: Test B flooded paddy test; conditions: Cyperus difformis, 360 h, Flood, 250 g ai/ha; visually evaluated after 13 to 15 d; read-out: Plant response rating, Sedge, Umbrella (0 to 100 scale where 0 is no effect and 100 is complete control)
Method in brief: (§2)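 2-leaf plants; pots flooded 3 cm over soil; cpd added to paddy water; depth held; greenhouse 13–15 d; visual rating vs controls, 0 = no effect, 100 = complete control.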

rice (Oryra sativa) = test: Test B flooded paddy test; conditions: Oryza sativa, 360 h, Flood, 250 g ai/ha; visually evaluated after 13 to 15 d; read-out: Plant response rating, Rice (0 to 100 scale where 0 is no effect and 100 is complete control)
Method in brief: as §2

[8] = tested on: barnyardgrass (Echinochloa crus-galli); test: Test B flooded paddy test; conditions: Echinochloa crus-galli, 360 h, Flood, 250 g ai/ha; visually evaluated after 13 to 15 d; read-out: Plant response rating, Barnyardgrass (0 to 100 scale where 0 is no effect and 100 is complete control)
Method in brief: as §2

[9] = tested on: ducksalad (Heteranthera limosa); test: Test B flooded paddy test; conditions: Heteranthera limosa, 360 h, Flood, 250 g ai/ha; visually evaluated after 13 to 15 d; read-out: Plant response rating, Ducksalad (0 to 100 scale where 0 is no effect and 100 is complete control)
Method in brief: as §2

[10] = tested on: ragweed (common ragweed, Ambrosia elatior); test: Test A postemergence; conditions: Ambrosia artemisiifolia, post-emergence, 240 h, Postemergence, read-out: Ragweed plant response rating (0 to 100 scale)
Method in brief: as §1

corn (Zea mays) = test: Test A postemergence; conditions: Zea mays, post-emergence, 240 h, Postemergence, read-out: Corn plant response rating (0 to 100 scale)
Method in brief: as §1

[11] = tested on: barnyardgrass (Echinochloa crus-galli); test: Test A postemergence; conditions: Echinochloa crus-galli, post-emergence, 240 h, Postemergence
Method in brief: as §1

[12] = tested on: blackgrass (Alopecurus myosuroides); test: Test A postemergence; conditions: Alopecurus myosuroides, post-emergence, 240 h, Postemergence, read-out: Blackgrass plant response rating (0 to 100 scale)
Method in brief: as §1

[13] = tested on: ryegrass, Italian (Italian ryegrass, Lolium multiflorum); test: Test A postemergence; conditions: Lolium multiflorum, post-emergence, 240 h, Postemergence, read-out: Ryegrass, Italian plant response rating (0 to 100 scale)
Method in brief: as §1

[14] = tested on: pigweed (Amaranthus retroflexus); test: Test A postemergence; conditions: Amaranthus retroflexus, post-emergence, 240 h, Postemergence, read-out: Pigweed plant response rating (0 to 100 scale)
Method in brief: as §1

[15] = tested on: wheat (Triticum aestivum); test: Test A postemergence; conditions: Triticum aestivum, post-emergence, 240 h, Postemergence, read-out: Wheat plant response rating (0 to 100 scale)
Method in brief: as §1

Kochia (Kochia scoparia) [16] = test: Test A postemergence; conditions: Bassia scoparia, post-emergence, 240 h, Postemergence, read-out: Kochia plant response rating (0 to 100 scale)
Method in brief: as §1

[17] = tested on: giant foxtail (Setaria faberii); test: Test A postemergence; conditions: Setaria faberi, post-emergence, 240 h, Postemergence, read-out: Foxtail, Giant plant response rating (0 to 100 scale)
Method in brief: as §1

[18] = 125 g ai/ha, visual rating about 10 d after treatment
[19] = 31 g ai/ha, 0 is no effect, 100 is complete control

**Q.** How did the pest or weed control at 31 g/ha ([1]; 31 g ai/ha, 0 to 100 scale where 0 is no effect and 100 is complete control, read-out: Ragweed plant response rating) turn out when COc1ccc([C@H]2CNC(=O)[C@@H]2C(=O)Nc2cccc(F)c2F)cc1 [Compound 1341] was run?
**A.** Its pest or weed control at 31 g/ha is 20%.

**Q.** What about the pest or weed control at 125 g/ha ([1]; 125 g ai/ha, 0 to 100 scale (0 no effect, 100 complete control), read-out: Plant response rating, Ragweed) of the same compound?
**A.** Its pest or weed control at 125 g/ha is 0%.

**Q.** What about the pest or weed control at 31 g/ha ([2]; 31 g ai/ha, 0 to 100 scale where 0 is no effect and 100 is complete control, read-out: Barnyardgrass plant response rating) of the same compound?
**A.** Its pest or weed control at 31 g/ha is 0%.

**Q.** And the pest or weed control at 125 g/ha ([2]; 125 g ai/ha, 0 to 100 scale (0 no effect, 100 complete control), read-out: Plant response rating, Barnyardgrass)?
**A.** The pest or weed control at 125 g/ha was 60%.

**Q.** And the pest or weed control at 31 g/ha ([3]; 31 g ai/ha, 0 to 100 scale where 0 is no effect and 100 is complete control, read-out: Ryegrass, Italian plant response rating)?
**A.** Its pest or weed control at 31 g/ha is 0%.

**Q.** What about the pest or weed control at 125 g/ha ([3]; 125 g ai/ha, 0 to 100 scale (0 no effect, 100 complete control), read-out: Plant response rating, Ryegrass, Italian) of the same compound?
**A.** Its pest or weed control at 125 g/ha is 0%.

**Q.** And the pest or weed control at 31 g/ha ([4]; 31 g ai/ha, 0 to 100 scale where 0 is no effect and 100 is complete control, read-out: Pigweed plant response rating)?
**A.** The pest or weed control at 31 g/ha was 0%.

**Q.** And the pest or weed control at 125 g/ha ([4]; 125 g ai/ha, 0 to 100 scale (0 no effect, 100 complete control), read-out: Plant response rating, Pigweed)?
**A.** The pest or weed control at 125 g/ha was 0%.

**Q.** What about the pest or weed control at 31 g/ha (Kochia (Kochia scoparia) [5]; 31 g ai/ha, 0 to 100 scale where 0 is no effect and 100 is complete control, read-out: Kochia plant response rating) of the same compound?
**A.** Its pest or weed control at 31 g/ha is 30%.

**Q.** What about the pest or weed control at 125 g/ha (Kochia (Kochia scoparia) [5]; 125 g ai/ha, 0 to 100 scale (0 no effect, 100 complete control), read-out: Plant response rating, Kochia) of the same compound?
**A.** Its pest or weed control at 125 g/ha is 0%.

**Q.** What about the pest or weed control at 31 g/ha ([6]; 31 g ai/ha, 0 to 100 scale where 0 is no effect and 100 is complete control, read-out: Foxtail, Giant plant response rating) of the same compound?
**A.** The pest or weed control at 31 g/ha was 10%.

**Q.** And the pest or weed control at 125 g/ha ([6]; 125 g ai/ha, 0 to 100 scale (0 no effect, 100 complete control), read-out: Plant response rating, Foxtail, Giant)?
**A.** The pest or weed control at 125 g/ha was 70%.

**Q.** And the pest or weed control at 250 g/ha [7]?
**A.** Its pest or weed control at 250 g/ha is 0%.

**Q.** And the pest or weed control at 250 g/ha (rice (Oryra sativa))?
**A.** Its pest or weed control at 250 g/ha is 0%.

**Q.** And the pest or weed control at 250 g/ha [8]?
**A.** The pest or weed control at 250 g/ha was 30%.

**Q.** And the pest or weed control at 250 g/ha [9]?
**A.** Its pest or weed control at 250 g/ha is 90%.

**Q.** What about the pest or weed control at 125 g/ha [10, 18] of the same compound?
**A.** The pest or weed control at 125 g/ha was 0%.

**Q.** And the pest or weed control at 31 g/ha [10, 19]?
**A.** Its pest or weed control at 31 g/ha is 0%.

**Q.** And the plant injury at 125 g/ha (corn (Zea mays); [18])?
**A.** Its plant injury at 125 g/ha is 0%.

**Q.** And the plant injury at 31 g/ha (corn (Zea mays); [19])?
**A.** The plant injury at 31 g/ha was 0%.

**Q.** And the pest or weed control at 125 g/ha ([11]; 125 g ai/ha, visual rating about 10 d after treatment, read-out: Barnyardgrass plant response rating (0 to 100 scale, 0 no effect, 100 complete control))?
**A.** Its pest or weed control at 125 g/ha is 90%.

**Q.** What about the pest or weed control at 31 g/ha ([11]; 31 g ai/ha, 0 is no effect, 100 is complete control, read-out: Barnyardgrass plant response rating (0 to 100 scale)) of the same compound?
**A.** Its pest or weed control at 31 g/ha is 40%.

**Q.** What about the pest or weed control at 125 g/ha [12, 18] of the same compound?
**A.** The pest or weed control at 125 g/ha was 0%.

**Q.** And the pest or weed control at 31 g/ha [12, 19]?
**A.** The pest or weed control at 31 g/ha was 0%.

**Q.** What about the pest or weed control at 125 g/ha [13, 18] of the same compound?
**A.** The pest or weed control at 125 g/ha was 0%.

**Q.** And the pest or weed control at 31 g/ha [13, 19]?
**A.** The pest or weed control at 31 g/ha was 0%.

**Q.** What about the pest or weed control at 125 g/ha [14, 18] of the same compound?
**A.** The pest or weed control at 125 g/ha was 0%.

**Q.** And the pest or weed control at 31 g/ha [14, 19]?
**A.** Its pest or weed control at 31 g/ha is 0%.

**Q.** What about the plant injury at 125 g/ha [15, 18] of the same compound?
**A.** The plant injury at 125 g/ha was 0%.

**Q.** And the plant injury at 31 g/ha [15, 19]?
**A.** Its plant injury at 31 g/ha is 0%.

**Q.** What about the pest or weed control at 125 g/ha (Kochia (Kochia scoparia) [16]; [18]) of the same compound?
**A.** Its pest or weed control at 125 g/ha is 0%.

**Q.** What about the pest or weed control at 31 g/ha (Kochia (Kochia scoparia) [16]; [19]) of the same compound?
**A.** The pest or weed control at 31 g/ha was 0%.

**Q.** What about the pest or weed control at 125 g/ha [17, 18] of the same compound?
**A.** Its pest or weed control at 125 g/ha is 0%.

**Q.** And the pest or weed control at 31 g/ha [17, 19]?
**A.** The pest or weed control at 31 g/ha was 0%.
